In ChEMBL document CHEMBL1201862, “PubChem BioAssay data set” (2004):
Blank lines part the entries; values can stand above or below the compound they belong to. Activity calls are given as the source filed them.

How the values were obtained:
SUMO E1/E2 = SUMO E1/E2 (Homo sapiens, UniProt P63279+Q9UBE0+Q9UBT2); test: SAR analysis of SUMOylation using HTRF in an in-Vitro dose response assay. [Related pubchem assays (depositor defined):AID2006, AID2011, AID2018, AID2069, AID2658]; format: functional
SUMO E1/E2, sequence (Q9UBE0 whole entry): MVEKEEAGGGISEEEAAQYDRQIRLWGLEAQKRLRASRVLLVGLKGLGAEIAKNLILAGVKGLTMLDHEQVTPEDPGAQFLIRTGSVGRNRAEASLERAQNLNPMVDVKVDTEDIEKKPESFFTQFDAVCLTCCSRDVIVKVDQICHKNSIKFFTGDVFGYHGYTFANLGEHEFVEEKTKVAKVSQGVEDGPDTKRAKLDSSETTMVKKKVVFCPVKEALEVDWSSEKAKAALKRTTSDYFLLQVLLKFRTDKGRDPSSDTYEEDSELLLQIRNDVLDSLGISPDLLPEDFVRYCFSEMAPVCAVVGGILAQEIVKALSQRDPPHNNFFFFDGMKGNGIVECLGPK
SUMO E1/E2, sequence (Q9UBT2 whole entry): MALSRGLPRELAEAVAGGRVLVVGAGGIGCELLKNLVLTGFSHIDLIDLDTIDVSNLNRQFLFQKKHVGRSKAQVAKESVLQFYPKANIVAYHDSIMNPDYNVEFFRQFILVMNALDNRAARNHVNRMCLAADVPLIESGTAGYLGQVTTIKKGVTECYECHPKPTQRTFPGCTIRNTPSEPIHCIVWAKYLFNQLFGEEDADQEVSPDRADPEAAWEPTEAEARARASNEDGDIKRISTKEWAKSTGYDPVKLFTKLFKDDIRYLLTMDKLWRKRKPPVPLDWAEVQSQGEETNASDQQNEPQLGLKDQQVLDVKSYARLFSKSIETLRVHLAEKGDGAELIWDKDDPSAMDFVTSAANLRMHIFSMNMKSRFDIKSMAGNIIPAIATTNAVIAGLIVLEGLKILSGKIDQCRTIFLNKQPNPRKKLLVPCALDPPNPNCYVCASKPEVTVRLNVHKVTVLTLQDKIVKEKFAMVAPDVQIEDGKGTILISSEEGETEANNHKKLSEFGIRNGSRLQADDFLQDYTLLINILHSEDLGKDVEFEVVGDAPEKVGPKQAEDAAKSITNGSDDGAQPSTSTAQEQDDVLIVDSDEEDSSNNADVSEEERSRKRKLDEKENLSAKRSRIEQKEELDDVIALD
SUMO E1/E2, sequence (P63279 whole entry): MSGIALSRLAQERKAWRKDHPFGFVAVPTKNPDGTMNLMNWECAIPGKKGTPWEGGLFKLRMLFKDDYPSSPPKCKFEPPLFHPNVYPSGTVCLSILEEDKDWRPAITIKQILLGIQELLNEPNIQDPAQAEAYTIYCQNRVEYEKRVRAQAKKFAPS

[1] = molecular target: T1, Voltage-gated N-type calcium channel alpha-1B subunit/Amyloid beta A4 precursor protein-binding family A member 1 (Homo sapiens, UniProt Q00975+Q02410); test: disruptors of Mint-PDZ/N-type channel peptide interaction – biochemical, HTRF, set 2, SAR follow-up (AID 434980); format: functional
T1 sequence (Q00975 whole entry): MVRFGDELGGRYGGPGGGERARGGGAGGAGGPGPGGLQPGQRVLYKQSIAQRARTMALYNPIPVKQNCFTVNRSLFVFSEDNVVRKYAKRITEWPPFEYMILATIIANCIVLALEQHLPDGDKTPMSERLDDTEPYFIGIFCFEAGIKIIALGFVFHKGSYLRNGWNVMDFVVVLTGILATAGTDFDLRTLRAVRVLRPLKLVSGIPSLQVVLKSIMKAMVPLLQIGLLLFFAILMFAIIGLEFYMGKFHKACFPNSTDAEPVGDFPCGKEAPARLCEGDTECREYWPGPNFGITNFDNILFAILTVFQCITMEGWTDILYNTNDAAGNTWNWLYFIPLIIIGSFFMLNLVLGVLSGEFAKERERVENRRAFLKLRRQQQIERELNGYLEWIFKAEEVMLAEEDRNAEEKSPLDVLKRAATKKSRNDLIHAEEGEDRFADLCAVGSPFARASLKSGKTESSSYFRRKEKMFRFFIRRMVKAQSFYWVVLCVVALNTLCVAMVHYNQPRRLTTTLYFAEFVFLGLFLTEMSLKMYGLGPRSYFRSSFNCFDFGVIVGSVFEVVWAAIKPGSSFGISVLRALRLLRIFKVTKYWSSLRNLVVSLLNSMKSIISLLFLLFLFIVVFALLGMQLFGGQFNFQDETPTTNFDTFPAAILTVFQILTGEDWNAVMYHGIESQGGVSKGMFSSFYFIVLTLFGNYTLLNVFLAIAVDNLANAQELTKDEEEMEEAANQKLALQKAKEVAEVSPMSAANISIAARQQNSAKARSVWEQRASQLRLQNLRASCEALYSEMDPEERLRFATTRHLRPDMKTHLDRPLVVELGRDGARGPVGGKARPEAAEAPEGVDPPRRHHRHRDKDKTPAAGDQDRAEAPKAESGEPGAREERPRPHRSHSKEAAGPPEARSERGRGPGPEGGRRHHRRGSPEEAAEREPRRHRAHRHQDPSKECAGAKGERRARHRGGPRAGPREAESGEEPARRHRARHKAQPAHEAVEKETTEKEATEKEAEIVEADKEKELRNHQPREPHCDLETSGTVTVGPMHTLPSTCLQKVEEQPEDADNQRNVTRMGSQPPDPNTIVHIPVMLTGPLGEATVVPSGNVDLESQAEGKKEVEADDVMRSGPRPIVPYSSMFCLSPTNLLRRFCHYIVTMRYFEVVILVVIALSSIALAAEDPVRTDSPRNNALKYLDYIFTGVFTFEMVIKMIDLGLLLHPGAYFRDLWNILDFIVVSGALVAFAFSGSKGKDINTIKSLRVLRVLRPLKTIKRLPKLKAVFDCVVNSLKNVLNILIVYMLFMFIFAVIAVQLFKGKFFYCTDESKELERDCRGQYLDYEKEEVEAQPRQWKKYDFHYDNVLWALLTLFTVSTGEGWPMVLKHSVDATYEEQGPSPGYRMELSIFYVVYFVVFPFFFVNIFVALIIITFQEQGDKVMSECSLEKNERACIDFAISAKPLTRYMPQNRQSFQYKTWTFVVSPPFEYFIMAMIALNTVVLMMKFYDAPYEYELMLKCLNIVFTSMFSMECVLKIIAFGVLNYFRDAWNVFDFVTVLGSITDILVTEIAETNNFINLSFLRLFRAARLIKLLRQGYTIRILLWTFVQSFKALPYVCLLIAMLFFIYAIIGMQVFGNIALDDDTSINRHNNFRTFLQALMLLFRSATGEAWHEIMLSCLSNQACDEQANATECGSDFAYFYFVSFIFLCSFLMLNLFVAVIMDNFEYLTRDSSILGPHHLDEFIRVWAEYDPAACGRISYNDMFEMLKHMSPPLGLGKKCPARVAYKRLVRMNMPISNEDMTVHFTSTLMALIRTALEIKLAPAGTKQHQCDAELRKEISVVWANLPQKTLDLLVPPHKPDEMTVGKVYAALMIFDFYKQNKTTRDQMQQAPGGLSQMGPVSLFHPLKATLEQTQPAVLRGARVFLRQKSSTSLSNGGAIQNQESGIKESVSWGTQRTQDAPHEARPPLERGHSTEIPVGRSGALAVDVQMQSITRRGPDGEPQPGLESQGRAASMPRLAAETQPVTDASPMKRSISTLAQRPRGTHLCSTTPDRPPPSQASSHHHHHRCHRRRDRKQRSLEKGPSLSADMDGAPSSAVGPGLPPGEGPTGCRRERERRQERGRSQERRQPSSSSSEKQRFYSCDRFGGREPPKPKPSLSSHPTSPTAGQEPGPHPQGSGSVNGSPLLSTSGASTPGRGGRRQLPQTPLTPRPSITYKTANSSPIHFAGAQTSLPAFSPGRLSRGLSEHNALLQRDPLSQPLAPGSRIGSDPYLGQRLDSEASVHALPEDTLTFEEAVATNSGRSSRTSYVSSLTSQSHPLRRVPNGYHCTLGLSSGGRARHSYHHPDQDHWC
T1 sequence (Q02410 whole entry): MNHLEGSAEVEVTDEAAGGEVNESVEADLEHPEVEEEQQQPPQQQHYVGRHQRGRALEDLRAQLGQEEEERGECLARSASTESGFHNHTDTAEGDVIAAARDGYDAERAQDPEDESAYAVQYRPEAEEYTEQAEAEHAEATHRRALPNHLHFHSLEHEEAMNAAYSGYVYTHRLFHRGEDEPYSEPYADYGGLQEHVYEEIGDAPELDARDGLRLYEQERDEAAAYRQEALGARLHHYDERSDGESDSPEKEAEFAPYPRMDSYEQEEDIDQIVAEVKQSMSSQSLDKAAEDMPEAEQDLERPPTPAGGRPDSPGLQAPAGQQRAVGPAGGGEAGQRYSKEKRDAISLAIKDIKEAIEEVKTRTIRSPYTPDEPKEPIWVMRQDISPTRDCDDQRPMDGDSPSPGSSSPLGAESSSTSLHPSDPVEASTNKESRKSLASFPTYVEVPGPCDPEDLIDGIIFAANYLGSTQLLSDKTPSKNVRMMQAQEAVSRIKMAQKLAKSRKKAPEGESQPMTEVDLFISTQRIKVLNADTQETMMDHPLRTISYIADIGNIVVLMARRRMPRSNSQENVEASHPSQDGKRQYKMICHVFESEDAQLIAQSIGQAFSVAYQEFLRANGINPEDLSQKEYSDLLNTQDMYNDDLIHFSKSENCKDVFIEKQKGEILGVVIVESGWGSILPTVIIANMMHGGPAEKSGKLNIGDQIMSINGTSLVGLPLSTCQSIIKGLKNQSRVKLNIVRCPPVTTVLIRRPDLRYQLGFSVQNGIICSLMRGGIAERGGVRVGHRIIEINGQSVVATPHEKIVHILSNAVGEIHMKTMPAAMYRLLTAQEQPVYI

[2] = molecular target: T1, Voltage-gated N-type calcium channel alpha-1B subunit/Amyloid beta A4 precursor protein-binding family A member 1; test: disruptors of Mint-PDZ/N-type channel peptide interaction – biochemical, HTRF, SAR follow-up (AID 2489); format: functional
Cytochrome P450 2C19 = Cytochrome P450 2C19 (Homo sapiens, UniProt P33261); test: Cytochrome panel assay with activity outcomes. Panel member name: p450-cyp2c19 Compounds with AC50 equal or less than 10 uM are considered active; format: functional; details: read-out: AC50
Cytochrome P450 2D6 = Cytochrome P450 2D6 (Homo sapiens, UniProt P10635);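 note: CYP2D6 member of a cytochrome P450 panel assay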
BJ [3] = test: BJ-TERT fibroblast viability loss – cell-based, RAS-independent, luminescence, dose response (AID 1933); format: functional; details: Homo sapiens
Beta-galactosidase = Beta-galactosidase (Escherichia coli, UniProt Q8VNN2); test: PubChem AID 485352; format: functional
BJ [4] = test: cells; format: functional, cell-based; details: Homo sapiens
[5] = molecular target: T2, Type-1 angiotensin II receptor (Homo sapiens, UniProt P30556); test: antagonism of angiotensin II type 1 receptor – cell-based, uHTS hits, selectivity assay for APJ receptor antagonist project, dose response (AID 463214); format: functional;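 note: antagonist potency against angiotensin II stimulated AT1 response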
T2 sequence (P30556 whole entry): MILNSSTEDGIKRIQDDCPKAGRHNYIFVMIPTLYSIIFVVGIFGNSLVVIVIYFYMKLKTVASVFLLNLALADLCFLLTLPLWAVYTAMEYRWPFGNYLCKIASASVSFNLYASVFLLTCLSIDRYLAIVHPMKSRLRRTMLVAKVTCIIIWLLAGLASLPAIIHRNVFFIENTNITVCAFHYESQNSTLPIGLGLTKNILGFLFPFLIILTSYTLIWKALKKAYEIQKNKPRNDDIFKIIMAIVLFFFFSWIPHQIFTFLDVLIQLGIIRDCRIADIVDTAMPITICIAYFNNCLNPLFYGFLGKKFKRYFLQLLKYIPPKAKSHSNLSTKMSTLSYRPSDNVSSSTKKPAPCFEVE

BJ [6] = test: BJ-TERT-LT-ST fibroblast viability loss – cell-based, RAS-independent, luminescence, dose response (AID 1935); format: functional; details: Homo sapiens;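 note: BJ fibroblasts immortalized with TERT plus LT and ST oncogenes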
[7] = DRD fibroblast viability loss – cell-based, non-viral oncogenic, luminescence, dose response (AID 1934); format: functional; details: Homo sapiens
[8] = molecular target: G-protein coupled receptor 55 (Homo sapiens, UniProt Q9Y2T6); test: selective activators of receptor GPR55 – imaging, U2OS cells, beta-arrestin-GFP redistribution, primary screen (AID 1961); format: functional
[9] = molecular target: Intestinal-type alkaline phosphatase (Mus musculus, UniProt P24822); test: PubChem AID 488874; format: functional
[10] = molecular target: T3, Intestinal-type alkaline phosphatase (Homo sapiens, UniProt P09923); test: inhibition of human intestinal alkaline phosphatase – biochemical, luminescent, uHTS hits, set 2, dose response (AID 488793); format: functional
T3 sequence (P09923 whole entry): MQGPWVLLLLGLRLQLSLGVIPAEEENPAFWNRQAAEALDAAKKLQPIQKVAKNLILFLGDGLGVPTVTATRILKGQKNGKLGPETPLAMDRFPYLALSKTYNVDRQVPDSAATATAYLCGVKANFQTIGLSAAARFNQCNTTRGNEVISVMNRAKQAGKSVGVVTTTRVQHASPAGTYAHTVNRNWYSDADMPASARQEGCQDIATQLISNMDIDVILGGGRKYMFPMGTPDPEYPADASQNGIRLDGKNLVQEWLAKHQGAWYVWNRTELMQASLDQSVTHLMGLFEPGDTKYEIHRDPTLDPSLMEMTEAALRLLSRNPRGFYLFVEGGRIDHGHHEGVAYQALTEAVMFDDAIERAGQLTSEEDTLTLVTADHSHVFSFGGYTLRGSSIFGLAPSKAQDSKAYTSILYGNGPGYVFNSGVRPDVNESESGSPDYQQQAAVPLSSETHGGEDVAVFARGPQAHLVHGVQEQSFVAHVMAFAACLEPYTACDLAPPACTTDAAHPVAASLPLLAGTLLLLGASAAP

[11] = molecular target: T3, Intestinal-type alkaline phosphatase; test: Dose Response confirmation of uHTS hits from a small molecule inhibitors of human intestinal alkaline phosphatase via a luminescent assay. [Related pubchem assays (depositor defined):AID2544, AID2574]; format: functional
[12] = molecular target: T4, Alkaline phosphatase, tissue-nonspecific isozyme (Homo sapiens, UniProt P05186); test: inhibition of tissue-nonspecific alkaline phosphatase – biochemical, dose response (AID 488882); format: functional
T4 sequence (P05186 whole entry): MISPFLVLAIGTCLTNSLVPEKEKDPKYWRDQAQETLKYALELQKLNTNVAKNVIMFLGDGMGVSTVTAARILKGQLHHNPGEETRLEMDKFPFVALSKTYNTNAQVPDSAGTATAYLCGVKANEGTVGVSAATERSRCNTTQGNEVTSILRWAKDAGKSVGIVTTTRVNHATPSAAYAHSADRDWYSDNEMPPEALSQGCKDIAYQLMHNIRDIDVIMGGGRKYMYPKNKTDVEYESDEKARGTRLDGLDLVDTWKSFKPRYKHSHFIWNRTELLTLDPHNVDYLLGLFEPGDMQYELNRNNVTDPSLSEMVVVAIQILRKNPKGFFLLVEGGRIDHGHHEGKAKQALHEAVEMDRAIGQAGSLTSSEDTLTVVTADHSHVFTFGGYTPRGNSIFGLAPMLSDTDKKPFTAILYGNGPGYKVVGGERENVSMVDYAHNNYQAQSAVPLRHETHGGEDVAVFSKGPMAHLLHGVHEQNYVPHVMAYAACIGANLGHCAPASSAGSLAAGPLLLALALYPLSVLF

- IC50 (SUMO E1/E2): 11.5 µM (active)
- IC50 [1]: 12.2 µM (active)
- IC50 [2]: 32.9 µM (active)
Compound: COc1ccc(CCNC(=O)COC(=O)c2cc(-c3ccco3)nc3ccccc23)cc1

- AC50 (Cytochrome P450 2C19): 28.2 µM (inconclusive)
- AC50 (Cytochrome P450 2D6): inconclusive
Compound: NC(=O)CC(c1ccccc1)c1ccco1 (stereo unspecified)

Compound: C=CCN1C(=O)/C(=C\C=C2\N(C)c3ccccc3C2(C)C)SC1=S
- EC50 (BJ [3]): > 150 µM (not active)
- EC50 (Beta-galactosidase): > 40 µM (inactive)
- EC50 (BJ [4]): 42.9 µM (active)
- IC50 [5]: > 40 µM (not active)
- EC50 (BJ [6]): > 150 µM (not active)
- EC50 [7]: > 150 µM (not active)
- EC50 [8]: > 32 µM (inactive)
- IC50 [9]: 33.4 µM (active)
- IC50 [10]: 11 µM (active)
- IC50 [11]: 15.9 µM (inactive)
- IC50 [12]: 8.19 µM (active)
